The supplement of paper PMC10307832

Key:
Test in all cases: relative viability (nuclei count vs DMSO), 5 days (fraction); higher = more cells survive
[1] = compound: CS(=O)(=O)N1CCN(Cc2cc3nc(-c4cccc5[nH]ncc45)nc(N4CCOCC4)c3s2)CC1 [Pictilisib] + COc1cccc2cc(-c3nc([C@H]4CC[C@H](C(=O)O)CC4)n4ncnc(N)c34)[nH]c12 [OSI-027] (partner 0.5 µM)
Summary of the method: (§1)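 Medians of duplicate plates are given as relative viability. That measure is the nuclei count in treated wells divided by the count in vehicle wells. Counts were taken on 4× images of lung cancer cell lines in 1536-well plates, 5 days after pin-tool dosing the day after seeding with one drug alone or a fixed anchor-drug dose plus five library-drug doses (not always all listed) in √10 steps.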

[2] = compound: CS(=O)(=O)N1CCN(Cc2cc3nc(-c4cccc5[nH]ncc45)nc(N4CCOCC4)c3s2)CC1 [Pictilisib] + Cc1nc(Nc2ncc(C(=O)Nc3c(C)cccc3Cl)s2)cc(N2CCN(CCO)CC2)n1 [Dasatinib] (partner 0.075 µM)
Summary of the method: as §1

[3] = compound: NC1(c2ccc(-c3nc4ccn5c(=O)[nH]nc5c4cc3-c3ccccc3)cc2)CCC1 [MK-2206] + CC(=O)c1c(C)c2cnc(Nc3ccc(N4CCNCC4)cn3)nc2n(C2CCCC2)c1=O [Palbociclib] (partner 0.5 µM)
Summary of the method: as §1

[4] = compound: CS(=O)(=O)N1CCN(Cc2cc3nc(-c4cccc5[nH]ncc45)nc(N4CCOCC4)c3s2)CC1 [Pictilisib] + C[C@@H](Oc1cc(-c2cnn(C3CCNCC3)c2)cnc1N)c1c(Cl)ccc(F)c1Cl [Crizotinib] (partner 1 µM)
Summary of the method: as §1

[5] = compound: CS(=O)(=O)N1CCN(Cc2cc3nc(-c4cccc5[nH]ncc45)nc(N4CCOCC4)c3s2)CC1 [Pictilisib] + Cc1nc(NC(=O)N2CCC[C@H]2C(N)=O)sc1-c1ccnc(C(C)(C)C(F)(F)F)c1 [Alpelisib] (partner 2 µM)
Summary of the method: as §1

Cell Line | relative viability ([1]; first compound 0.02 µM) | relative viability ([1]; first compound 0.06325 µM) | relative viability ([1]; first compound 0.6325 µM) | relative viability ([1]; first compound 2 µM) | relative viability ([2]; first compound 0.02 µM) | relative viability ([2]; first compound 0.06325 µM) | relative viability ([2]; first compound 0.6325 µM) | relative viability ([2]; first compound 2 µM) | relative viability ([3]; first compound 0.01 µM) | relative viability ([3]; first compound 0.03162 µM) | relative viability ([3]; first compound 0.3162 µM) | relative viability ([3]; first compound 1 µM) | relative viability ([4]; first compound 0.02 µM) | relative viability ([4]; first compound 0.06325 µM) | relative viability ([4]; first compound 0.6325 µM) | relative viability ([4]; first compound 2 µM) | relative viability ([5]; first compound 0.02 µM) | relative viability ([5]; first compound 0.06325 µM) | relative viability ([5]; first compound 0.6325 µM) | relative viability ([5]; first compound 2 µM)
NCI-H2009 | 0.656 | 0.583 | 0.319 | 0.188 | 0.307 | 0.298 | 0.159 | 0.129 | 0.139 | 0.25 | 0.179 | 0.177 | 1.02 | 1.02 | 1.04 | 0.705 | 1.19 | 1.17 | 1.13 | 1.07
NCI-H2023 | 0.385 | 0.33 | 0.151 | 0.0847 | 0.556 | 0.509 | 0.182 | 0.0932 | 0.39 | 0.347 | 0.297 | 0.208 | 0.513 | 0.533 | 0.331 | 0.201 | 0.546 | 0.488 | 0.445 | 0.32
NCI-H2085 | 0.706 | 0.802 | 0.303 | 0.284 | 0.241 | 0.22 | 0.198 | 0.18 | 0.433 | 0.558 | 0.397 | 0.522 | 0.887 | 0.994 | 0.747 | 0.394 | 1.01 | 0.959 | 0.74 | 0.419
NCI-H2087 | 0.503 | 0.446 | 0.32 | 0.237 | 0.672 | 0.822 | 0.632 | 0.691 | 0.225 | 0.226 | 0.184 | 0.217 | 0.912 | 0.828 | 1.03 | 0.985 | 1.22 | 1.06 | 1.02 | 0.954
NCI-H2126 | 0.706 | 0.75 | 0.541 | 0.427 | 0.626 | 0.566 | 0.337 | 0.3 | 0.372 | 0.358 | 0.357 | 0.335 | 0.998 | 0.988 | 0.972 | 0.688 | 0.776 | 0.712 | 0.679 | 0.564
NCI-H2170 | 0.776 | 0.711 | 0.642 | 0.418 | 0.544 | 0.754 | 0.522 | 0.343 | 0.4 | 0.391 | 0.354 | 0.343 | 1.19 | 1.09 | 0.973 | 0.617 | 0.834 | 0.879 | 0.813 | 0.583
NCI-H2228 | 0.587 | 0.431 | 0.283 | 0.155 | 0.654 | 0.433 | 0.317 | 0.167 | 0.586 | 0.848 | 0.487 | 0.725 | 0.437 | 0.473 | 0.311 | 0.168 | 0.674 | 0.665 | 0.507 | 0.35
NCI-H2347 | 0.458 | 0.213 | 0.286 | 0.217 | 0.321 | 0.297 | 0.337 | 0.215 | 0.418 | 0.415 | 0.39 | 0.3 | 0.695 | 0.496 | 0.592 | 0.545 | 1.1 | 1.09 | 0.912 | 0.873
NCI-H2405 | 0.548 | 0.569 | 0.486 | 0.278 | 0.231 | 0.217 | 0.189 | 0.168 | 0.512 | 0.534 | 0.532 | 0.481 | 0.884 | 0.854 | 0.745 | 0.558 | 0.957 | 0.785 | 0.732 | 0.424
NCI-H3122 | 0.909 | 0.786 | 0.435 | 0.172 | 0.876 | 0.926 | 0.54 | 0.179 | 0.187 | 0.179 | 0.201 | 0.193 | 0.258 | 0.253 | 0.194 | 0.186 | 0.749 | 0.723 | 0.658 | 0.469
PC-3 [JPC-3] | 0.591 | 0.718 | 0.621 | 0.433 | 0.965 | 1.02 | 1.03 | 0.555 | 0.5 | 0.509 | 0.535 | 0.519 | 0.983 | 0.969 | 1.03 | 0.905 | 1 | 1.09 | 1.04 | 0.976
PC-14 | 1.02 | 1 | 0.557 | 0.266 | 0.274 | 0.291 | 0.17 | 0.095 | 0.512 | 0.481 | 0.589 | 0.474 | 0.909 | 0.928 | 0.926 | 0.681 | 0.924 | 0.943 | 1.02 | 0.766
RERF-LC-KJ | 0.531 | 0.559 | 0.402 | 0.371 | 0.802 | 0.811 | 0.687 | 0.451 | 0.954 | 1.13 | 1 | 1.06 | 0.845 | 0.875 | 0.816 | 0.635 | 0.784 | 0.712 | 0.697 | 0.574
SK-LU-1 | 0.38 | 0.335 | 0.185 | 0.19 | 0.159 | 0.168 | 0.103 | 0.109 | 0.431 | 0.433 | 0.375 | 0.353 | 0.957 | 1.17 | 0.945 | 0.697 | 1.16 | 1.29 | 0.895 | 0.713
SK-MES-1 | 0.596 | 0.566 | 0.334 | 0.215 | 0.304 | 0.308 | 0.128 | 0.117 | 0.327 | 0.296 | 0.289 | 0.256 | 1.04 | 0.971 | 0.804 | 0.492 | 0.856 | 0.804 | 0.634 | 0.45
SW 1573 | 0.615 | 0.584 | 0.362 | 0.237 | 0.485 | 0.524 | 0.288 | 0.161 | 0.571 | 0.335 | 0.294 | 0.298 | 0.817 | 0.791 | 0.626 | 0.268 | 0.891 | 0.766 | 0.658 | 0.532
